Experimental findings from patent US7205304B2, “Sulfonyl-Derivatives as novel inhibitors of histone deacetylase” (Janssen Pharmaceutica N.V., priority 2002, dated 2007) are described below.

Values after ≈ are worked out from the molar mass of the structure shown. Bounds are passed on as bounds.

Data set [1] concerns the target histone deacetylase (HeLa nuclear extracts). The experiment in a line: In vitro assay for inhibition of histone deacetylase. Format: biochemical. The following applies: [3H]acetylated histone H4 peptide substrate.
Data set [2] relates to A2780 ovarian carcinoma cells. Nature of the data set: Antiproliferative activity on A2780 cells (MTT). Format: cell-based, human. Conditions: Homo sapiens, A2780, 96 h, four days of incubation, read-out: Cellular activity pIC50 (converted). The procedure, abridged:
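A2780 ovarian carcinoma cells were seeded at 1500 cells/well and exposed to compound for four days, with DMSO ≤0.1%. Viability was measured by MTT (2 h, 37° C) and expressed as a percentage of untreated controls after blank subtraction. Initial single-point testing was at 10^−6 M, then full curves gave pIC50.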

Data set [3] is described as follows: Kinetic solubility in aqueous media (nephelometry). In kind it is physicochemical. The following applies: phosphate citrate buffer, pH 7.4, aqueous buffer, kinetic from dmso stock, phosphate citrate buffer pH 7.4, turbidity of three dilution steps; read-out: Solubility Score. The procedure, abridged: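 DMSO stock (5 mM) diluted in three consecutive steps into phosphate citrate buffer pH 7.4, in triplicate; turbidity of each dilution read by nephelometry immediately after the last step. Compounds ranked into 3 classes: score 3 if first dilution clear, 2 if first unclear but second clear.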

`O=C(NO)c1cnc(N2CCN(S(=O)(=O)c3ccc4ccccc4c3)C(C(=O)NO)C2)nc1` (stereo not drawn) [Compound 122] showed a melting point of 166 °C. Also, in data set [1], the “Enzyme activity pIC50” value was 7.06. The IC50 in data set [2] is over 10 µM.

On to `CN(C)Cc1sccc1-c1ccc(S(=O)(=O)N2CCN(c3ncc(C(=O)NO)cn3)CC2)cc1` [Co. No. 124], for which the melting point came to 192 °C.

Turning to `O=C(NO)c1cnc(N2CCN(S(=O)(=O)c3ccc(-c4cccc(CCN5CCCC5)c4)cc3)CC2)nc1` [Co. No. 127], the melting point stood at 243 °C.

`CN(C)Cc1cccc(-c2ccc(S(=O)(=O)N3CCN(c4ncc(C(=O)NO)cn4)CC3)cc2)c1` [Compound 168]: the “Enzyme activity pIC50” value in data set [1] came to 8.766. Further, the IC50 in data set [2] was 0.0638 µM. Further, the solubility in data set [3] is over 454 µM.

For the molecule `O=C(NO)c1cnc(N2CCN(S(=O)(=O)c3ccc(-c4ccccc4OCCN4CCCC4)cc3)CC2)nc1` [Compound 125], the “Enzyme activity pIC50” value in data set [1] was 8.659. Moreover, the IC50 in data set [2] is 0.0931 µM. Also, the solubility in data set [3] fell in the range of 75.8 to 454 µM (≈ 41.9 to 251 µg/mL).

Turning to `CN1CCN(CCc2cccc(-c3ccc(S(=O)(=O)N4CCN(c5ncc(C(=O)NO)cn5)CC4)cc3)c2)CC1` [Compound 174], in data set [1], the “Enzyme activity pIC50” value is listed as 8.212. Also, in data set [2], the IC50 was 0.0804 µM. For the same molecule, in data set [3], the solubility was over 454 µM.

Take `O=C(NO)c1cnc(N2CCN(S(=O)(=O)c3ccc(-c4cccc(CN5CCCC5)c4)cc3)CC2)nc1` [Compound 171]: in data set [1], the “Enzyme activity pIC50” value is on record as 8.45. The IC50 in data set [2] was 0.0471 µM. In addition, the solubility in data set [3] is over 454 µM.

`Cn1nc(-c2ccc(S(=O)(=O)N3CCN(c4ncc(C(=O)NO)cn4)CC3)s2)cc1C(F)(F)F` [Compound 93]: the “Enzyme activity pIC50” value in data set [1] is 7.464. Moreover, the IC50 in data set [2] is 0.455 µM. Moreover, the solubility in data set [3] was over 454 µM.

In the case of `O=C(NO)c1cnc(N2CCN(S(=O)(=O)c3ccc(-c4cccc5c4oc4ccccc45)cc3)CC2)nc1` [Compound 131], in data set [1], the “Enzyme activity pIC50” value is given as 6.058. Further, in data set [2], the IC50 was 0.546 µM. In addition, the solubility in data set [3] lay within 75.8 to 454 µM (≈ 40.1 to 241 µg/mL).

As for `O=C(NO)c1ccc(N2CCN(S(=O)(=O)c3ccccc3C(F)(F)F)CC2)cc1` [Compound 74], in data set [1], the “Enzyme activity pIC50” value came to 5.841. In data set [2], the IC50 was 2.61 µM. The solubility in data set [3] fell in the range of 75.8 to 454 µM (≈ 32.6 to 195 µg/mL).

As for `COc1ccc(-c2ccc(S(=O)(=O)N3CCN(c4ncc(C(=O)NO)cn4)CC3)cc2)cc1` [Compound 175], the “Enzyme activity pIC50” value in data set [1] came to 7.691. Further, the IC50 in data set [2] is 0.0689 µM. The solubility in data set [3] was under 75.8 µM.

Regarding `Cc1noc(C)c1-c1ccc(S(=O)(=O)N2CCN(c3ncc(C(=O)NO)cn3)CC2)cc1` [Compound 112], the “Enzyme activity pIC50” value in data set [1] is reported as 7.54. The IC50 in data set [2] is 0.33 µM. Further, the solubility in data set [3] is over 454 µM.

For `O=C(NO)c1cnc(N2CCN(S(=O)(=O)c3ccc(-c4ccoc4)cc3)CC2)nc1` [Compound 100], the “Enzyme activity pIC50” value in data set [1] is 8.171. In data set [2], the IC50 is 0.0579 µM. Also, the solubility in data set [3] fell in the range of 75.8 to 454 µM (≈ 32.6 to 195 µg/mL).

Take `CN(C)CCN(C)Cc1ccccc1-c1ccc(S(=O)(=O)N2CCN(c3ncc(C(=O)NO)cn3)CC2)cc1` [Compound 159]: the “Enzyme activity pIC50” value in data set [1] is reported as 8.61. For the same molecule, the IC50 in data set [2] was 0.0959 µM. In addition, in data set [3], the solubility is over 454 µM.

Consider `COc1ccc(-c2ccc(S(=O)(=O)N3CCN(c4ncc(C(=O)NO)cn4)CC3)cc2)c(OC)c1OC` [Compound 134], for which, in data set [1], the “Enzyme activity pIC50” value is given as 7.662. Also, in data set [2], the IC50 is 0.316 µM. In data set [3], the solubility is 75.8 to 454 µM (≈ 40.1 to 241 µg/mL).

For `CC(C)(C)c1ccc(-c2ccc(S(=O)(=O)N3CCN(c4ncc(C(=O)NO)cn4)CC3)cc2)cc1` [Compound 105], the “Enzyme activity pIC50” value in data set [1] was 6.494. Further, the IC50 in data set [2] is 0.798 µM. Besides, the solubility in data set [3] was under 75.8 µM.

Turning to `O=C(NO)c1cnc(N2CCN(S(=O)(=O)c3c(Cl)nc4sccn34)CC2)nc1` [Compound 95], the “Enzyme activity pIC50” value in data set [1] turned out to be 7.363. For the same molecule, the IC50 in data set [2] was 1.1 µM. In data set [3], the solubility was over 454 µM.

As for `CN(c1ccccc1)c1ccc2cc(S(=O)(=O)N3CCN(c4ncc(C(=O)NO)cn4)CC3)ccc2c1` [Compound 186], in data set [1], the “Enzyme activity pIC50” value worked out at 6.539. Also, in data set [2], the IC50 is 0.558 µM. In addition, the solubility in data set [3] lay within 75.8 to 454 µM (≈ 39.3 to 236 µg/mL).

Take `Cc1c(C)c(S(=O)(=O)N2CCN(c3ccc(C(=O)NO)cc3)CC2)c(C)c2c1OC(C)(C)C2` [Compound 67]: in data set [1], the “Enzyme activity pIC50” value stood at 5.177. For the same molecule, the IC50 in data set [2] was 0.855 µM. For the same molecule, in data set [3], the solubility is under 75.8 µM.

Regarding `O=C(NO)c1cnc(N2CCN(S(=O)(=O)c3ccc(-c4ccccc4OCCN4CCCC4)cc3)CC2)nc1` (hydrate or solvate) [Co. No. 125], the melting point came out at 146.9 °C.

Regarding `O=C(NO)c1ccc(N2CCN(S(=O)(=O)c3ccc(Cl)cc3)CC2)cc1` [Compound 76], in data set [1], the “Enzyme activity pIC50” value worked out at 6.227. The IC50 in data set [2] is 1.36 µM. For the same molecule, the solubility in data set [3] is under 75.8 µM.

For `O=C(NO)c1ccc(CN2CCN(S(=O)(=O)c3ccc4ccccc4c3)CC2)cc1` [Compound 88], in data set [1], the “Enzyme activity pIC50” value is given as 6.481. Further, the IC50 in data set [2] was 2.84 µM. The solubility in data set [3] was over 454 µM.

On to `CCCc1ccc(S(=O)(=O)N2CCN(c3ccc(C(=O)NO)cc3)CC2)cc1` [Compound 63], for which the “Enzyme activity pIC50” value in data set [1] stood at 6.215. Further, the IC50 in data set [2] is 1.86 µM. Besides, the solubility in data set [3] was under 75.8 µM.

In the case of `O=C(NO)c1cnc(N2CCN(S(=O)(=O)c3ccc4cccnc4c3)CC2)nc1` [Compound 91], the “Enzyme activity pIC50” value in data set [1] is recorded as 7.688. The IC50 in data set [2] was 0.783 µM. In addition, the solubility in data set [3] is over 454 µM.

On to `CN(C)S(=O)(=O)N1CCN(Cc2sccc2-c2ccc(S(=O)(=O)N3CCN(c4ncc(C(=O)NO)cn4)CC3)cc2)CC1` [Compound 147], for which the “Enzyme activity pIC50” value in data set [1] was determined as 6.765. The IC50 in data set [2] is 0.693 µM. Besides, the solubility in data set [3] is under 75.8 µM.

Regarding `O=C(NO)c1cnc(N2CCN(S(=O)(=O)c3ccc(-c4cc(Cl)cc(Cl)c4)cc3)CC2)nc1` [Compound 176], in data set [1], the “Enzyme activity pIC50” value amounted to 6.513. In addition, the IC50 in data set [2] is 0.828 µM. Further, in data set [3], the solubility was in the range of 75.8 to 454 µM (≈ 38.5 to 231 µg/mL).

`COc1cncc(-c2ccc(S(=O)(=O)N3CCN(c4ncc(C(=O)NO)cn4)CC3)cc2)c1` [Compound 138]: in data set [1], the “Enzyme activity pIC50” value is given as 7.545. The IC50 in data set [2] is 0.249 µM. Moreover, the solubility in data set [3] was 75.8 to 454 µM (≈ 35.7 to 214 µg/mL).

As to `O=C(NO)c1ccc(N2CCN(S(=O)(=O)c3ccc4ccccc4c3)CC2)cc1` [Compound 2], in data set [1], the “Enzyme activity pIC50” value is 7.147. Besides, in data set [2], the IC50 is 1.94 µM. Further, in data set [3], the solubility was under 75.8 µM.

On to `O=C(NO)c1cnc(N2CCN(S(=O)(=O)c3ccc(-c4ccsc4CN(CCO)CCO)cc3)CC2)nc1` [Compound 145], for which, in data set [1], the “Enzyme activity pIC50” value is recorded as 8.06. Further, the IC50 in data set [2] is 0.279 µM. Further, in data set [3], the solubility was under 75.8 µM.

In the case of `O=C(NO)c1cnc(N2CCN(S(=O)(=O)c3ccc(-c4ccc(OC(F)(F)F)cc4)cc3)CC2)nc1` [Compound 98], the “Enzyme activity pIC50” value in data set [1] turned out to be 7.054. For the same molecule, in data set [2], the IC50 is 0.356 µM. In addition, the solubility in data set [3] lay in the range of 75.8 to 454 µM (≈ 39.7 to 238 µg/mL).

With `O=C(NO)c1ccc(NC(=O)N2CCN(S(=O)(=O)c3ccc4ccccc4c3)CC2)cc1` [Compound 8], the “Enzyme activity pIC50” value in data set [1] worked out at 7.587. In data set [2], the IC50 is 2.28 µM. The solubility in data set [3] was over 454 µM.
